Results as given in publication PMC7026418, “The kinase polypharmacology landscape of clinical PARP inhibitors” (Scientific Reports, 2020).
Like-named read-outs stand apart in the source and are kept apart here. Each block holds one molecule with its values, some of them ahead of it.

Legend:
Assay in all cases: biochemical
Design in all cases: DiscoveRx KINOMEscan active site-directed competition binding; percent of control kinase bound to immobilised ligand
LIMK1 = LIMK1 (Homo sapiens, UniProt P53667)
[1] = molecular target: T1, JAK3(JH1domain-catalytic) (Homo sapiens, UniProt P52333)
T1 construct: JH1domain-catalytic
T1 sequence (P52333 1-1124): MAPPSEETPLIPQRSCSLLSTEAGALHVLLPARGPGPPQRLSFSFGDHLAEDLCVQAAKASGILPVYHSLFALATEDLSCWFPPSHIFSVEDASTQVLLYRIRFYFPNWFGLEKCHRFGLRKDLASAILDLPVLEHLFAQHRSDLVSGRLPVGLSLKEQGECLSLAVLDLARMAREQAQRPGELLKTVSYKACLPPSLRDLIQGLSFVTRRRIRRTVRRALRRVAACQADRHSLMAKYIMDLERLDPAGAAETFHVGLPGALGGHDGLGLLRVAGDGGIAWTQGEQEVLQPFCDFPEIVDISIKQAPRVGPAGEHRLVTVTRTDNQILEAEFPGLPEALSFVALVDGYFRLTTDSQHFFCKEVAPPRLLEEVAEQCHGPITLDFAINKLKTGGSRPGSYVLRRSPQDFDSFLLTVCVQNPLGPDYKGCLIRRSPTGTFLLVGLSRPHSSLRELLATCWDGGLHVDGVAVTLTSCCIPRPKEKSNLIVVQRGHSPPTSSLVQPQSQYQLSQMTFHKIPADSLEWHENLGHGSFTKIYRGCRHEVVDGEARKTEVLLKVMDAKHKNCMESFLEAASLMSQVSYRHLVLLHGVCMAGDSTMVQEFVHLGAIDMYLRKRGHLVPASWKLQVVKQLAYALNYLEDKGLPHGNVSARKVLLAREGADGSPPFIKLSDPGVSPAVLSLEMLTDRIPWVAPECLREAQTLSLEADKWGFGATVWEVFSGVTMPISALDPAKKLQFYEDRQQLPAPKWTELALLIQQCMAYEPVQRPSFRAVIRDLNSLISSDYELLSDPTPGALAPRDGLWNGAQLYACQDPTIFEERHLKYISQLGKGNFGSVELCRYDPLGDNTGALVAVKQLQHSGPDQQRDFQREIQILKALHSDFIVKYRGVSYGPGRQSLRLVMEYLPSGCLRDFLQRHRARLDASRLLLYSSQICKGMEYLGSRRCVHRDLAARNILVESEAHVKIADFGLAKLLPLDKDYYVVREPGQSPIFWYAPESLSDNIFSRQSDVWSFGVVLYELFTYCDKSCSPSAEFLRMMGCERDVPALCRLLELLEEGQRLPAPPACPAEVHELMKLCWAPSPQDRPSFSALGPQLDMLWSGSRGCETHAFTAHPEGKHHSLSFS

PIP5K2B = molecular target: T2, PIP5K2B (Homo sapiens, UniProt P78356)
T2 construct: gene PIP4K2B
T2 sequence (P78356 1-416): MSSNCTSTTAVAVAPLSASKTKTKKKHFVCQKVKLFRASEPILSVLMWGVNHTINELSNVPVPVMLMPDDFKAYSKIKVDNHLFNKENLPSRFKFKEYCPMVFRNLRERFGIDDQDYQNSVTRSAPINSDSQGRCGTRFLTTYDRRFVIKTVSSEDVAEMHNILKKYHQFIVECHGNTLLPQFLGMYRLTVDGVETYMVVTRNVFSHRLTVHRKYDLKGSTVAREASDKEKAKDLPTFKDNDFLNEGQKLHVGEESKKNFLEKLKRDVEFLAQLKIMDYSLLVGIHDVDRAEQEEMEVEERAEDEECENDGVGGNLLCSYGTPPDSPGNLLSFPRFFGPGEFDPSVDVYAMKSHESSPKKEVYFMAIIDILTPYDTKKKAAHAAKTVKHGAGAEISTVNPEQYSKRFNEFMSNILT

GRK4 = GRK4 (Homo sapiens, UniProt P32298)
LRRK2 = LRRK2 (Homo sapiens, UniProt Q5S007)
[2] = read-out: Olaparib / %Ctrl @ 10000nM
[3] = read-out: Talazoparib (BMN 673) / %Ctrl @ 10000nM
[4] = read-out: Rucaparib / %Ctrl @ 10000nM, binding competition, % of control
[5] = read-out: Niraparib (MK-4827) / %Ctrl @ 10000nM

Sequence of LRRK2 (Q5S007 whole entry): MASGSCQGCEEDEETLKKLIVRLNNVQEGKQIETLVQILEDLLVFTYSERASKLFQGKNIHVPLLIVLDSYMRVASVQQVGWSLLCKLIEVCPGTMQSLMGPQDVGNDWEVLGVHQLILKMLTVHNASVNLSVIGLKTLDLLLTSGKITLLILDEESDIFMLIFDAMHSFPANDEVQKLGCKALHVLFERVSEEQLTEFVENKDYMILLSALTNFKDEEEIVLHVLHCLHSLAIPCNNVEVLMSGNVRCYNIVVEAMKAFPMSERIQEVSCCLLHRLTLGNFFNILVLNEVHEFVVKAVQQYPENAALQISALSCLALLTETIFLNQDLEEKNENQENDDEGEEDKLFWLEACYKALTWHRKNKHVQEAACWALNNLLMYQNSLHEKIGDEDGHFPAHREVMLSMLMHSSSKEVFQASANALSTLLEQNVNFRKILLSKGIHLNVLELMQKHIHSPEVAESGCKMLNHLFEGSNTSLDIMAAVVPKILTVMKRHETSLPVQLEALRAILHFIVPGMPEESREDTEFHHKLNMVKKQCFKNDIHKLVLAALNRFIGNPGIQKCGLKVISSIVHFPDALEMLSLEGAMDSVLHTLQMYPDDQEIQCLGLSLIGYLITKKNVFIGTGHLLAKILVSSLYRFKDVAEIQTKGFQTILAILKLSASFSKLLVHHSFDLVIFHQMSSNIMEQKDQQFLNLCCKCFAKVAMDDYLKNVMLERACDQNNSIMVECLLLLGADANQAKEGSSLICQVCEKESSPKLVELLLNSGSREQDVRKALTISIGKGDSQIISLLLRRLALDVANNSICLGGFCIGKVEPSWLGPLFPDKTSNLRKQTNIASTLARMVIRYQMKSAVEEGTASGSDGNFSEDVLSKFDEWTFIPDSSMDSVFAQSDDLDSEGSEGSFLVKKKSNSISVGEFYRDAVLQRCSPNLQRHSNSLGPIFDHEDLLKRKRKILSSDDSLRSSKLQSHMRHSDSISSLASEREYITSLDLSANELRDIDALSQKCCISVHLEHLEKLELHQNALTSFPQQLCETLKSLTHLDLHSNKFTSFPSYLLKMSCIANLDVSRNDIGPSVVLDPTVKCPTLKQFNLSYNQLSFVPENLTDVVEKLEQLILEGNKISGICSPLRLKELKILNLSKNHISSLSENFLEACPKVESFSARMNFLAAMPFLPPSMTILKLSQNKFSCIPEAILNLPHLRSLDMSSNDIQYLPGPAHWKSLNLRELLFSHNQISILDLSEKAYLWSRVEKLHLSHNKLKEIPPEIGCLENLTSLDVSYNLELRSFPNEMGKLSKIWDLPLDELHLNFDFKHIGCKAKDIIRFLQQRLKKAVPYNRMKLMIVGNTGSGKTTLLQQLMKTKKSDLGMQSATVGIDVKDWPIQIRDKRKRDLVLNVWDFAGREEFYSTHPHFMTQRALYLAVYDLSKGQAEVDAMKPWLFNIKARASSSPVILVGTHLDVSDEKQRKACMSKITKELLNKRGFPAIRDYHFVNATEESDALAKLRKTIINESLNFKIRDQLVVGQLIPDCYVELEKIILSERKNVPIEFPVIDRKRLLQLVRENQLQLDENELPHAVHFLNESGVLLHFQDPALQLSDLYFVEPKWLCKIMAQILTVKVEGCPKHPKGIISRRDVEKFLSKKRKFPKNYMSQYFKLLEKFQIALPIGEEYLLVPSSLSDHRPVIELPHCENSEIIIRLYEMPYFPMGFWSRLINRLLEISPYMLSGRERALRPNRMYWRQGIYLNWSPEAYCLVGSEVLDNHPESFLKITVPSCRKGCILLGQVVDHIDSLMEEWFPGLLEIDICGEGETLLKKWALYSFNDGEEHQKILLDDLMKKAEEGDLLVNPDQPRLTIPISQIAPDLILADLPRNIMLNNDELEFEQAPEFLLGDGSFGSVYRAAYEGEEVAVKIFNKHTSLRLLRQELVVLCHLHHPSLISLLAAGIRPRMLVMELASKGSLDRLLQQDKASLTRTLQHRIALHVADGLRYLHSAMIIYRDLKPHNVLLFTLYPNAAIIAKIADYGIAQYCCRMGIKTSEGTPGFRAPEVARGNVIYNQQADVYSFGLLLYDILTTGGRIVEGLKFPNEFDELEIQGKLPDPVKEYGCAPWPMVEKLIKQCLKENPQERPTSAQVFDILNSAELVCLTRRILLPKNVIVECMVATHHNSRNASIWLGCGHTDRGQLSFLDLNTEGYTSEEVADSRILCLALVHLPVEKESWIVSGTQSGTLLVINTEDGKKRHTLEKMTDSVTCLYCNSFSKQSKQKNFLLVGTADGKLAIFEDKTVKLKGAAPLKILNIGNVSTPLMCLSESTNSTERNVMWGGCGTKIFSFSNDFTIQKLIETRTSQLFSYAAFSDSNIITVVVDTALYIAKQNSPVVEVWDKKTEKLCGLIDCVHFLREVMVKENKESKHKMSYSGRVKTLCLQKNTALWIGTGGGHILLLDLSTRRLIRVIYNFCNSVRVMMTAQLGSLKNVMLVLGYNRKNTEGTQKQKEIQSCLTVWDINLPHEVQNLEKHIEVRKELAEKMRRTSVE
Sequence of LIMK1 (P53667 whole entry): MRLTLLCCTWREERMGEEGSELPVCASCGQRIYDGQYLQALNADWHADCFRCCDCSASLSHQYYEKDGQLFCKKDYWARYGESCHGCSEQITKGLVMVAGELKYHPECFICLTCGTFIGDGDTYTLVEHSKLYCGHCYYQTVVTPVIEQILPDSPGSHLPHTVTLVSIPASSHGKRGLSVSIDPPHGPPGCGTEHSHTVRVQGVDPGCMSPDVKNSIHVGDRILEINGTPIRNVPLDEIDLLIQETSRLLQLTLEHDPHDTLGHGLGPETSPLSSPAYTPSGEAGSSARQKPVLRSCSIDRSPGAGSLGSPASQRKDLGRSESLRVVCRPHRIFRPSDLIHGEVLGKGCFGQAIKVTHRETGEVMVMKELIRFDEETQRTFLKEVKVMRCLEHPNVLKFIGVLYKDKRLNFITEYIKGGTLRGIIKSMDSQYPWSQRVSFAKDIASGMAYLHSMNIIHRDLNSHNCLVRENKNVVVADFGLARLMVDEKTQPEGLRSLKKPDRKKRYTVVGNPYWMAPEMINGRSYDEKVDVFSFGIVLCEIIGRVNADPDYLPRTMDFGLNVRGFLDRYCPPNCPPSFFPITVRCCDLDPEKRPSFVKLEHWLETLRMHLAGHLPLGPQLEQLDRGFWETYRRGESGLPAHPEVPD
Sequence of GRK4 (P32298 whole entry): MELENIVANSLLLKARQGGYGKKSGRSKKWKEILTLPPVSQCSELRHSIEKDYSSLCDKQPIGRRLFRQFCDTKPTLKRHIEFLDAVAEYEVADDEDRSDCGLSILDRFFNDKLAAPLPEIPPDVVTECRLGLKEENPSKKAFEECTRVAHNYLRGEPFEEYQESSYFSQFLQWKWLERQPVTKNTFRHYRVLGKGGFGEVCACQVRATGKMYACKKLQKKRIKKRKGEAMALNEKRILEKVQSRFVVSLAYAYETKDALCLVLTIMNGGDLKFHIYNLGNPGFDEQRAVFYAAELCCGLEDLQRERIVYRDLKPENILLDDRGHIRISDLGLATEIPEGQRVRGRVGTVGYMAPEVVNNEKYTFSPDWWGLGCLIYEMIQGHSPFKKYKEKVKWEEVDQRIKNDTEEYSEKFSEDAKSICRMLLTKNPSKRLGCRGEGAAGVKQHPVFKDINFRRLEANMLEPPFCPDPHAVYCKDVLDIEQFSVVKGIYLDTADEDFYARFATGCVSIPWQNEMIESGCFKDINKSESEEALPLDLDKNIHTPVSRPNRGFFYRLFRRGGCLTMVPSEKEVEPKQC

percent of control binding at 10 µM (LIMK1; [2]): 100% | percent of control binding at 10 µM [1, 2]: 83% | percent of control binding at 10 µM (PIP5K2B; [2]): 96% | percent of control binding at 10 µM (GRK4; [2]): 91% | percent of control binding at 10 µM (LRRK2; [2]): 100%
Structure (SMILES): O=C(c1cc(Cc2n[nH]c(=O)c3ccccc23)ccc1F)N1CCN(C(=O)C2CC2)CC1 [Olaparib]

percent of control binding at 10 µM (LIMK1; [3]): 99% | percent of control binding at 10 µM [1, 3]: 100% | percent of control binding at 10 µM (PIP5K2B; [3]): 92% | percent of control binding at 10 µM (GRK4; [3]): 100% | percent of control binding at 10 µM (LRRK2; [3]): 100%
Structure (SMILES): Cn1ncnc1[C@H]1c2n[nH]c(=O)c3cc(F)cc(c23)N[C@@H]1c1ccc(F)cc1 [Talazoparib]

percent of control binding at 10 µM (LIMK1; [4]): 100% | percent of control binding at 10 µM [1, 4]: 70% | percent of control binding at 10 µM (PIP5K2B; [4]): 87% | percent of control binding at 10 µM (GRK4; [4]): 100% | percent of control binding at 10 µM (LRRK2; [4]): 78%
Structure (SMILES): CNCc1ccc(-c2[nH]c3cc(F)cc4c3c2CCNC4=O)cc1 [Rucaparib]

Structure (SMILES): NC(=O)c1cccc2cn(-c3ccc([C@@H]4CCCNC4)cc3)nc12 [Niraparib]
percent of control binding at 10 µM (LIMK1; [5]): 82% | percent of control binding at 10 µM [1, 5]: 95% | percent of control binding at 10 µM (PIP5K2B; [5]): 80% | percent of control binding at 10 µM (GRK4; [5]): 62% | percent of control binding at 10 µM (LRRK2; [5]): 96%
